# Results taken from the supplement of paper PMC10733146.
# Key:
# Assay in all cases: viability relative to DMSO control (fraction); higher = less drug effect (more viable cells)
# Details in all cases: 48 h
# [1] = test system: primary MCL patient cells (S041)
# Outline: (§1)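 In 384-well plates with compounds pre-plated at five concentrations (one well per concentration), primary mononuclear tumour cells were plated at 4 × 10^4 cells per well. The cells came from blood or bone marrow by Ficoll isolation or from processed lymph node, and were used fresh or cryopreserved. Culture ran for 48 h at 37 °C and 5% CO2 in RPMI-1640 containing penicillin/streptomycin, L-glutamine and human serum. Viability was read as CellTiter-Glo luminescence, normalised to the median of 16 inner DMSO wells.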
# [2] = test system: primary FL patient cells (S022)
# Outline: as §1
# [3] = test system: primary AML patient cells (S037)
# Outline: as §1
# [4] = test system: primary AML patient cells (S006)
# Outline: as §1
# [5] = test system: primary AML patient cells (S072)
# Outline: as §1
# [6] = test system: primary FL patient cells (S087)
# Outline: as §1
# [7] = test system: primary MCL patient cells (S063)
# Outline: as §1
# [8] = test system: primary MCL patient cells (S068)
# Outline: as §1
# [9] = test system: primary AML patient cells (S079)
# Outline: as §1
# [10] = test system: primary AML patient cells (S012)
# Outline: as §1
# [11] = test system: primary CLL patient cells (S031)
# Outline: as §1
# [12] = test system: primary AML patient cells (S055)
# Outline: as §1
# [13] = test system: primary T-PLL patient cells (S008)
# Outline: as §1
# [14] = test system: primary ALL patient cells (S048)
# Outline: as §1
# [15] = test system: primary DLBCL patient cells (S082)
# Outline: as §1
# [16] = test system: primary MCL patient cells (S053)
# Outline: as §1
# [17] = test system: primary AML patient cells (S091)
# Outline: as §1
# [18] = test system: primary AML patient cells (S089)
# Outline: as §1
# [19] = test system: primary AML patient cells (S009)
# Outline: as §1
# [20] = test system: primary AML patient cells (S056)
# Outline: as §1
compound,measurement,setting,value
Nc1ccc2ncnc(NCCc3ccc(Oc4ccccc4)cc3)c2c1 [EVP4593],viability,[1]; 0.008 µM,0.902
same,viability,[1]; 0.04 µM,0.93
same,viability,[1]; 0.2 µM,0.873
same,viability,[1]; 1 µM,0.716
same,viability,[1]; 5 µM,0.729
same,viability,[2]; 0.008 µM,0.911
same,viability,[2]; 0.04 µM,0.871
same,viability,[2]; 0.2 µM,0.805
same,viability,[2]; 1 µM,0.816
same,viability,[2]; 5 µM,0.825
same,viability,[3]; 0.008 µM,0.943
same,viability,[3]; 0.04 µM,0.813
same,viability,[3]; 0.2 µM,0.859
same,viability,[3]; 1 µM,1.08
same,viability,[3]; 5 µM,1.07
same,viability,[4]; 0.008 µM,0.855
same,viability,[4]; 0.04 µM,0.755
same,viability,[4]; 0.2 µM,0.557
same,viability,[4]; 1 µM,0.362
same,viability,[4]; 5 µM,0.248
same,viability,[5]; 0.008 µM,0.844
same,viability,[5]; 0.04 µM,0.823
same,viability,[5]; 0.2 µM,0.772
same,viability,[5]; 1 µM,0.637
same,viability,[5]; 5 µM,0.652
same,viability,[6]; 0.008 µM,0.933
same,viability,[6]; 0.04 µM,0.915
same,viability,[6]; 0.2 µM,0.862
same,viability,[6]; 1 µM,0.811
same,viability,[6]; 5 µM,0.79
same,viability,[7]; 0.008 µM,0.934
same,viability,[7]; 0.04 µM,0.945
same,viability,[7]; 0.2 µM,0.924
same,viability,[7]; 1 µM,0.874
same,viability,[7]; 5 µM,0.866
same,viability,[8]; 0.008 µM,0.844
same,viability,[8]; 0.04 µM,0.766
same,viability,[8]; 0.2 µM,0.741
same,viability,[8]; 1 µM,0.683
same,viability,[8]; 5 µM,0.676
same,viability,[9]; 0.008 µM,0.818
same,viability,[9]; 0.04 µM,0.84
same,viability,[9]; 0.2 µM,0.806
same,viability,[9]; 1 µM,0.675
same,viability,[9]; 5 µM,0.646
same,viability,[10]; 0.008 µM,1.05
same,viability,[10]; 0.04 µM,1.03
same,viability,[10]; 0.2 µM,1.07
same,viability,[10]; 1 µM,0.992
same,viability,[10]; 5 µM,1.05
same,viability,[11]; 0.008 µM,0.884
same,viability,[11]; 0.04 µM,0.854
same,viability,[11]; 0.2 µM,0.803
same,viability,[11]; 1 µM,0.686
same,viability,[11]; 5 µM,0.601
same,viability,[12]; 0.008 µM,0.913
same,viability,[12]; 0.04 µM,0.853
same,viability,[12]; 0.2 µM,0.791
same,viability,[12]; 1 µM,0.828
same,viability,[12]; 5 µM,0.828
same,viability,[13]; 0.008 µM,0.997
same,viability,[13]; 0.04 µM,0.971
same,viability,[13]; 0.2 µM,0.894
same,viability,[13]; 1 µM,0.861
same,viability,[13]; 5 µM,0.868
same,viability,[14]; 0.008 µM,0.776
same,viability,[14]; 0.04 µM,0.919
same,viability,[14]; 0.2 µM,0.88
same,viability,[14]; 1 µM,0.869
same,viability,[14]; 5 µM,0.676
same,viability,[15]; 0.008 µM,0.83
same,viability,[15]; 0.04 µM,0.736
same,viability,[15]; 0.2 µM,0.588
same,viability,[15]; 1 µM,0.462
same,viability,[15]; 5 µM,0.452
same,viability,[16]; 0.008 µM,0.876
same,viability,[16]; 0.04 µM,0.875
same,viability,[16]; 0.2 µM,0.821
same,viability,[16]; 1 µM,0.672
same,viability,[16]; 5 µM,0.642
same,viability,[17]; 0.008 µM,0.891
same,viability,[17]; 0.04 µM,0.837
same,viability,[17]; 0.2 µM,0.869
same,viability,[17]; 1 µM,0.624
same,viability,[17]; 5 µM,0.532
same,viability,[18]; 0.008 µM,0.701
same,viability,[18]; 0.04 µM,0.737
same,viability,[18]; 0.2 µM,0.629
same,viability,[18]; 1 µM,0.44
same,viability,[18]; 5 µM,0.215
same,viability,[19]; 0.008 µM,0.792
same,viability,[19]; 0.04 µM,0.705
same,viability,[19]; 0.2 µM,0.749
same,viability,[19]; 1 µM,0.636
same,viability,[19]; 5 µM,0.691
same,viability,[20]; 0.008 µM,0.691
same,viability,[20]; 0.04 µM,0.627
same,viability,[20]; 0.2 µM,0.412
same,viability,[20]; 1 µM,0.313
same,viability,[20]; 5 µM,0.307
CS(=O)(=O)c1ccc(C(=O)Nc2ccc(Cl)c(-c3ccccn3)c2)c(Cl)c1 [Vismodegib],viability,[1]; 0.024 µM,0.934
same,viability,[1]; 0.12 µM,0.973
same,viability,[1]; 0.6 µM,0.935
same,viability,[1]; 3 µM,0.969
same,viability,[1]; 15 µM,0.984
same,viability,[2]; 0.024 µM,0.868
same,viability,[2]; 0.12 µM,0.958
same,viability,[2]; 0.6 µM,0.886
same,viability,[2]; 3 µM,0.911
same,viability,[2]; 15 µM,0.971
same,viability,[3]; 0.024 µM,0.927
same,viability,[3]; 0.12 µM,0.979
same,viability,[3]; 0.6 µM,0.91
same,viability,[3]; 3 µM,0.958
same,viability,[3]; 15 µM,1.02
same,viability,[4]; 0.024 µM,0.902
same,viability,[4]; 0.12 µM,0.951
same,viability,[4]; 0.6 µM,0.886
same,viability,[4]; 3 µM,0.885
same,viability,[4]; 15 µM,0.954
same,viability,[5]; 0.024 µM,0.969
same,viability,[5]; 0.12 µM,0.954
same,viability,[5]; 0.6 µM,0.903
same,viability,[5]; 3 µM,0.902
same,viability,[5]; 15 µM,0.927
same,viability,[6]; 0.024 µM,0.918
same,viability,[6]; 0.12 µM,0.898
same,viability,[6]; 0.6 µM,0.914
same,viability,[6]; 3 µM,0.92
same,viability,[6]; 15 µM,0.929
same,viability,[7]; 0.024 µM,0.93
same,viability,[7]; 0.12 µM,0.956
same,viability,[7]; 0.6 µM,0.911
same,viability,[7]; 3 µM,0.925
same,viability,[7]; 15 µM,0.921
same,viability,[8]; 0.024 µM,0.891
same,viability,[8]; 0.12 µM,0.929
same,viability,[8]; 0.6 µM,0.949
same,viability,[8]; 3 µM,0.992
same,viability,[8]; 15 µM,1.07
same,viability,[9]; 0.024 µM,0.897
same,viability,[9]; 0.12 µM,0.894
same,viability,[9]; 0.6 µM,0.899
same,viability,[9]; 3 µM,0.871
same,viability,[9]; 15 µM,0.818
same,viability,[10]; 0.024 µM,0.993
same,viability,[10]; 0.12 µM,1
same,viability,[10]; 0.6 µM,0.995
same,viability,[10]; 3 µM,0.936
same,viability,[10]; 15 µM,1
same,viability,[11]; 0.024 µM,0.85
same,viability,[11]; 0.12 µM,0.996
same,viability,[11]; 0.6 µM,0.889
same,viability,[11]; 3 µM,0.867
same,viability,[11]; 15 µM,0.897
same,viability,[12]; 0.024 µM,0.914
same,viability,[12]; 0.12 µM,0.927
same,viability,[12]; 0.6 µM,0.931
same,viability,[12]; 3 µM,0.925
same,viability,[12]; 15 µM,0.964
same,viability,[13]; 0.024 µM,0.941
same,viability,[13]; 0.12 µM,0.932
same,viability,[13]; 0.6 µM,0.983
same,viability,[13]; 3 µM,0.938
same,viability,[13]; 15 µM,0.926
same,viability,[14]; 0.024 µM,0.921
same,viability,[14]; 0.12 µM,0.941
same,viability,[14]; 0.6 µM,0.933
same,viability,[14]; 3 µM,0.948
same,viability,[14]; 15 µM,1.1
same,viability,[15]; 0.024 µM,0.89
same,viability,[15]; 0.12 µM,0.939
same,viability,[15]; 0.6 µM,0.915
same,viability,[15]; 3 µM,0.933
same,viability,[15]; 15 µM,1.07
same,viability,[16]; 0.024 µM,0.915
same,viability,[16]; 0.12 µM,0.932
same,viability,[16]; 0.6 µM,0.893
same,viability,[16]; 3 µM,0.9
same,viability,[16]; 15 µM,1.05
same,viability,[17]; 0.024 µM,0.973
same,viability,[17]; 0.12 µM,0.901
same,viability,[17]; 0.6 µM,0.997
same,viability,[17]; 3 µM,0.996
same,viability,[17]; 15 µM,0.893
same,viability,[18]; 0.024 µM,0.87
same,viability,[18]; 0.12 µM,0.881
same,viability,[18]; 0.6 µM,0.93
same,viability,[18]; 3 µM,0.98
same,viability,[18]; 15 µM,0.642
same,viability,[19]; 0.024 µM,0.913
same,viability,[19]; 0.12 µM,0.918
same,viability,[19]; 0.6 µM,0.944
same,viability,[19]; 3 µM,0.942
same,viability,[19]; 15 µM,0.939
same,viability,[20]; 0.024 µM,0.986
same,viability,[20]; 0.12 µM,1.07
same,viability,[20]; 0.6 µM,0.913
same,viability,[20]; 3 µM,0.783
same,viability,[20]; 15 µM,0.845
